According to patent US5580956A, “Phospholipase C-inhibiting peptides” (priority 1992, dated 1996):
≈ marks a conversion by molar mass, not a printed value. Peptide text beside a SMILES is read from it. * marks the point of attachment. Propanoyl(3-cPent) = O=C(CCC1CCCC1)*; Cyclohexylacetyl = O=C(CC1CCCCC1)*; Cyclopentylacetyl = O=C(CC1CCCC1)*; Cyclopropanecarbonyl = O=C(C1CC1)*; Nonanoyl = CCCCCCCCC(=O)*; Isobutyryl = CC(C)C(=O)*; Octanoyl = CCCCCCCC(=O)*; Butyryl = CCCC(=O)*

Key:
PLC-γ1 = target: T1, PLC-γ1 (Bos taurus, UniProt P08487); experiment: PLC-inhibiting activity (release of [3H]inositol phosphate from [3H]PIP2); assay type: biochemical, bovine; conditions: PI-PLC-γ1, 37° C., 10 minutes; for inhibition at 120 µM (stock): Concentration 120 μM (aqueous solution of test peptide)
T1 construct: A sample (PLC-γ1) was prepared from bovine thymus according to the method of Y. Homma et al; from tissue; host or cells: bovine thymus
T1 sequence (P08487 1-1291): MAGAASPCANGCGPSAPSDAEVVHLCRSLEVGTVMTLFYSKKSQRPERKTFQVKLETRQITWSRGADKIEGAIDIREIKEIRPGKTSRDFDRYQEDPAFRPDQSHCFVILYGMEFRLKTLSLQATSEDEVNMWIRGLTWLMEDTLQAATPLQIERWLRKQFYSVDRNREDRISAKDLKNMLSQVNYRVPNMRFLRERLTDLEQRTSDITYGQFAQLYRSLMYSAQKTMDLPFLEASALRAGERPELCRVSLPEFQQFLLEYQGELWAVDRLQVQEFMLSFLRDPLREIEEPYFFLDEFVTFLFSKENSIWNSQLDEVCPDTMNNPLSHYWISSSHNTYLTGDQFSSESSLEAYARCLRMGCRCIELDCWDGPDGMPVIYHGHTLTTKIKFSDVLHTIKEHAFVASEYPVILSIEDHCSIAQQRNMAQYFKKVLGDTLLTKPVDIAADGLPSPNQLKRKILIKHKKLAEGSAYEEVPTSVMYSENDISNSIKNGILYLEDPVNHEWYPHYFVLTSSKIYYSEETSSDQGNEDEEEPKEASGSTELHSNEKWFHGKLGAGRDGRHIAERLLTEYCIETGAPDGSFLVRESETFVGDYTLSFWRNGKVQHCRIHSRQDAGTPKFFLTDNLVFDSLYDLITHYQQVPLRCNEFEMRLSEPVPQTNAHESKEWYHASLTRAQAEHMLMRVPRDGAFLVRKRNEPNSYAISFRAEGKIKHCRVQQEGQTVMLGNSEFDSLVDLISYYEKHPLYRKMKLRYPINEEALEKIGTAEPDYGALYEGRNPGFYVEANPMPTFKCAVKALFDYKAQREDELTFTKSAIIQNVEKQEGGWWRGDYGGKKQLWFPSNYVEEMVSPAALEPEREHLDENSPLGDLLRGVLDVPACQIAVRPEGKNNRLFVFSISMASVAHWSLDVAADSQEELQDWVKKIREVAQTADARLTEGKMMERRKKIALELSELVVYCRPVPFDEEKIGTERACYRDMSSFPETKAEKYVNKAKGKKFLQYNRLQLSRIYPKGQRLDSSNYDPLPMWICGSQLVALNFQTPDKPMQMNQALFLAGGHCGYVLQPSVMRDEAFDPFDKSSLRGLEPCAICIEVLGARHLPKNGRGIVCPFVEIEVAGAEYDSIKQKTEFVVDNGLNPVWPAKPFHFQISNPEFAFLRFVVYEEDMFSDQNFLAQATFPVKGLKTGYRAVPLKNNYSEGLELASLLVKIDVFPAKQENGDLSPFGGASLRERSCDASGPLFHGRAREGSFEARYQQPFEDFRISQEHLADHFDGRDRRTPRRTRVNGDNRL
Experimental: A sample (PLC-γ1) was prepared from bovine thymus according to the method of Y. Homma et al. described in Biochemical Journal [(Biochem. J.), 269, 13 (1990)]. A solution having the composition listed in Table 1 below was prepared in advance on the ice and the reaction was begun with heating to 37° C. After incubation for 10 minutes, 2 ml of a solution mixture of chloroform/methanol (2:[…]) was added thereto to stop the reaction. The resulting inositol phosphate was extracted with 0.5 ml of 1N hydrochloric acid. Two-phase distribution was carried out by centrifugation (2000×g, 3 minutes), and the amount of ^3 H contained in 0.7 ml of the supernatant was measured with scintillation counter. […] The obtained value of specific radioactivity was defined as "A", the value of specific radioactivity obtained when an equivalent amount of water was added instead of the aqueous solution of the test peptide was defined as "B", the value of specific radioactivity obtained when an equivalent amount of water was added instead of the sample and the aqueous solution of the test peptide was defined as "C", and the inhibition rate (X) was determined according to the following equation. X(%)=[…]

KMS-4 cells = experiment: Cell proliferation-inhibiting activity (BrdU incorporation, Amersham Cell Proliferation Detection Kit); assay type: cell-based; conditions: 17 hours with peptide, BrdU-stained cells
Experimental: The following procedure was carried out with an Amersham Cell Proliferation Detection Kit. First, cells [KMS-4; M. Nanba et al., International Journal of Cancer, 32, 697 (1983)] were suspended in a DMEM culture medium (product of Nissui Seiyaku) containing 10% fetal calf serum to a concentration of 1-2×10^4 cells/ml, and 1 ml of the above-mentioned cell suspension was put into each well of a 24-well plate (product of Corning Co.). The cells were cultured for 2 days in a CO2 incubator (37° C., 5% CO2). Next, the culture medium was exchanged with a DMEM medium containing 10% fetal calf serum, and then the test peptide was added thereto and culturing was carried out for 17 hours. The culture medium was again exchanged with a serum-free DMEM medium, 0.5 ml of a solution of the reagents labelled 5-bromo-2'-deoxyuridine (BrdU) and 5-fluoro-2'-deoxyuridine (FdU) [10:1] diluted 1000-fold with the same medium was added to each well, and cultured for 2 hours. The culture medium was removed, and the cells were immobilized with an acetic acid/ethanol solution. The immobilized cells were stained according to the method for the Amersham Cell Proliferation Kit, and then further stained with a 1% Giemsa solution (product of Merck Co.). The number of cells incorporating BrdU and the total cell count within 1 field of vision of the microscope (approximately 200 cells) were determined, and the proportion (%) of stained cells per field of vision was calculated. Furthermore, the same procedure was repeated 10 times, and the average value thereof was defined as the cell proliferation activity (%). The cell proliferation-inhibiting activity was calculated in the following manner. The proliferation activity without addition of peptide was defined as "A", the proliferation activity with addition of the test peptide was defined as "B", and the cell proliferation inhibition rate (X) was determined according to the following equation. X (%)=[…]

[1] = test system: Pseudomonas aeruginosa Bin H No. 1; assay type: cell-based; conditions: Bin H No. 1, pH 7
Experimental: (§1) The antibacterial activity was determined by the agar dilution method using a culture medium (pH 7.0) containing 3 g/l bactotrypton (product of Difco Co.), 1 g/l meat extract, 1 g/l glucose and 16 g/l agar.

[2] = test system: Proteus vulgaris ATCC6897; assay type: cell-based; conditions: ATCC6897, pH 7
Experimental: as §1

Row | Compound | inhibition at 120 µM (stock) (PLC-γ1; read-out: Inhibition rate (%)) [%] | Cell proliferation inhibition rate (%) (KMS-4 cells; Concentration 31 μM) | Cell proliferation inhibition rate (%) (KMS-4 cells; Concentration 32 μM) | other results
1 | CSCC[C@H](NC(=O)[C@H](CCCCN)NC(=O)[C@H](CCCNC(=N)N)NC(=O)[C@H](Cc1ccc(O)cc1)NC(=O)[C@H](CC(C)C)NC(=O)CC1CCCC1)C(=O)N[C@@H](CCCNC(=N)N)C(=O)N[C@@H](CC(C)C)C(=O)N[C@@H](CCCNC(=N)N)C(=O)N[C@@H](Cc1ccc(O)cc1)C(=O)N1CCC[C@H]1C(=O)N[C@H](C(N)=O)C(C)C [(I-17), C5 H9 CH2 CO-Leu-Tyr-Arg-Lys-Met-Arg-Leu-Arg-Tyr-Pro-Val-NH2] (Cyclopentylacetyl-LYRKMRLRYPV-NH2) | 53 | 72 | – | –
2 | CSCC[C@H](NC(=O)[C@H](CCCCN)NC(=O)[C@H](CCCNC(=N)N)NC(=O)[C@H](Cc1ccc(O)cc1)NC(=O)[C@H](CC(C)C)NC(=O)C(C)C)C(=O)N[C@@H](CCCNC(=N)N)C(=O)N[C@@H](CC(C)C)C(=O)N[C@@H](CCCNC(=N)N)C(=O)N[C@@H](Cc1ccc(O)cc1)C(=O)N1CCC[C@H]1C(=O)N[C@H](C(N)=O)C(C)C [(I-19), (CH3)2 CHCO-Leu-Tyr-Arg-Lys-Met-Arg-Leu-Arg-Tyr-Pro-Val-NH2] (Isobutyryl-LYRKMRLRYPV-NH2) | – | – | 59 | MIC [1]: 83 µg/mL (≈ 53.1 µM); MIC [2]: 83 µg/mL (≈ 53.1 µM); inhibition at 640 µM (stock) (PLC-γ1; Concentration 640 μM (aqueous solution of test peptide), read-out: Inhibition rate (%)): 67%
3 | CCCCCCCC(=O)N[C@@H](CC(C)C)C(=O)N[C@@H](Cc1ccc(O)cc1)C(=O)N[C@@H](CCCNC(=N)N)C(=O)N[C@@H](CCCCN)C(=O)N[C@@H](CCSC)C(=O)N[C@@H](CCCNC(=N)N)C(=O)N[C@@H](CC(C)C)C(=O)N[C@@H](CCCNC(=N)N)C(=O)N[C@@H](Cc1ccc(O)cc1)C(=O)N1CCC[C@H]1C(=O)N[C@H](C(N)=O)C(C)C [(I-21), CH3 (CH2)6 CO-Leu-Tyr-Arg-Lys-Met-Arg-Leu-Arg-Tyr-Pro-Val-NH2] (Octanoyl-LYRKMRLRYPV-NH2) | 86 | 56 | – | –
4 | CSCC[C@H](NC(=O)[C@H](CCCCN)NC(=O)[C@H](CCCNC(=N)N)NC(=O)[C@H](Cc1ccc(O)cc1)NC(=O)[C@H](CC(C)C)NC(=O)CCC1CCCC1)C(=O)N[C@@H](CCCNC(=N)N)C(=O)N[C@@H](CC(C)C)C(=O)N[C@@H](CCCNC(=N)N)C(=O)N[C@@H](Cc1ccc(O)cc1)C(=O)N1CCC[C@H]1C(=O)N[C@H](C(N)=O)C(C)C [(I-23), C5 H9 CH2 CH2 CO-Leu-Tyr-Arg-Lys-Met-Arg-Leu-Arg-Tyr-Pro-Val-NH2] ({Propanoyl(3-cPent)}-LYRKMRLRYPV-NH2) | 53 | 53 | – | –
5 | CSCC[C@H](NC(=O)[C@H](CCCCN)NC(=O)[C@H](CCCNC(=N)N)NC(=O)[C@H](Cc1ccc(O)cc1)NC(=O)[C@H](CC(C)C)NC(=O)C1CC1)C(=O)N[C@@H](CCCNC(=N)N)C(=O)N[C@@H](CC(C)C)C(=O)N[C@@H](CCCNC(=N)N)C(=O)N[C@@H](Cc1ccc(O)cc1)C(=O)N1CCC[C@H]1C(=O)N[C@H](C(N)=O)C(C)C [(I-24), C3 H5 CO-Leu-Tyr-Arg-Lys-Met-Arg-Leu-Arg-Tyr-Pro-Val-NH2] (Cyclopropanecarbonyl-LYRKMRLRYPV-NH2) | 55 | – | 66 | –
6 | CSCC[C@H](NC(=O)[C@H](CCCCN)NC(=O)[C@H](CCCNC(=N)N)NC(=O)[C@H](Cc1ccc(O)cc1)NC(=O)[C@H](CC(C)C)NC(=O)CC1CCCCC1)C(=O)N[C@@H](CCCNC(=N)N)C(=O)N[C@@H](CC(C)C)C(=O)N[C@@H](CCCNC(=N)N)C(=O)N[C@@H](Cc1ccc(O)cc1)C(=O)N1CCC[C@H]1C(=O)N[C@H](C(N)=O)C(C)C [(I-25), C6 H11 CH2 CO-Leu-Tyr-Arg-Lys-Met-Arg-Leu-Arg-Tyr-Pro-Val-NH2] (Cyclohexylacetyl-LYRKMRLRYPV-NH2) | 50 | 75 | – | –
7 | CCCCCCCCC(=O)N[C@@H](CC(C)C)C(=O)N[C@@H](Cc1ccc(O)cc1)C(=O)N[C@@H](CCCNC(=N)N)C(=O)N[C@@H](CCCCN)C(=O)N[C@@H](CCSC)C(=O)N[C@@H](CCCNC(=N)N)C(=O)N[C@@H](CC(C)C)C(=O)N[C@@H](CCCNC(=N)N)C(=O)N[C@@H](Cc1ccc(O)cc1)C(=O)N1CCC[C@H]1C(=O)N[C@H](C(N)=O)C(C)C [(I-28), CH3 (CH2)7 CO-Leu-Tyr-Arg-Lys-Met-Arg-Leu-Arg-Tyr-Pro-Val-NH2] (Nonanoyl-LYRKMRLRYPV-NH2) | 78 | 22 | – | –
8 | H-YRKMRLRY-NH2 [Compound (I-9), H-Tyr-Arg-Lys-Met-Arg-Leu-Arg-Tyr-NH2] | – | – | – | inhibition at 850 µM (stock) (PLC-γ1; Concentration 850 μM (aqueous solution of test peptide), read-out: Inhibition rate (%)): 34%; Cell proliferation inhibition rate (%) (KMS-4 cells; Concentration 42 μM): 50%
9 | n-C3 H7 CO-Leu-Tyr-Arg-Lys-Met-Arg-Leu-Arg-Tyr-Pro-Val-NH2 (Butyryl-LYRKMRLRYPV-NH2; SMILES CCCC(=O)N[C@@H](CC(C)C)C(=O)N[C@@H](Cc1ccc(O)cc1)C(=O)N[C@@H](CCCNC(=N)N)C(=O)N[C@@H](CCCCN)C(=O)N[C@@H](CCSC)C(=O)N[C@@H](CCCNC(=N)N)C(=O)N[C@@H](CC(C)C)C(=O)N[C@@H](CCCNC(=N)N)C(=O)N[C@@H](Cc1ccc(O)cc1)C(=O)N1CCC[C@H]1C(=O)N[C@H](C(N)=O)C(C)C) [Compound (I-11)] | – | – | 84 | Inhibition rate (%) (PLC-γ1; Concentration 130 μM (aqueous solution of test peptide)): 31%; Cell proliferation inhibition rate (%) (KMS-4 cells; Concentration 1 μM): 86%
